# In patent US9149791B2, “Water-soluble carbohydrate polyethers” (TRGel, LLC, priority 2008, dated 2015):
# Assay: Solubility of monomers and polymers in water and organic solvents
# Type: physicochemical
# Description: The DM trgel monomers as prepared by the methods exemplified in Examples 1-5 above were converted to polymers by the anionic polymerization reaction as illustrated in Reaction Scheme A and the physical properties of homopolymers of differing monomers are presented in Table 1. With reference to Table 1 it should be noted that all of the resulting polymers have very low poly dispersity (Mw/Mn). […] All trgel monomers can be copolymerized randomly or in blocks. Copolymerization of water-soluble and water insoluble monomers results in polymers with controlled solubility in water, including gel forming polymers. Water-soluble polymers are particularly useful in biological applications such as surface protection from non-specific adsorption. The data also illustrates that the glass transition temperature (Tg) of polymers with alkyl substituents decreases as the alkyl chain length increases. […] The DM trgel polymers wherein R=2-methoxyethyl or R=2-(2-methoxyethoxyethyl) show lower critical solution temperature (LCST) behavior.
Solubility in hexane (hexane),Compound,Solubility in water
soluble,"CCCCCCCCCCO[C@H]1[C@@H]2O[C@@H]2[C@@H]2OC[C@H]1O2 [DDM, 1,6:2,3-dianhydro-4-O-decyl-β-D-mannopyranose]",
,"COCCOC1C2COC(O2)C2OC12 [MEDM, 1,6:2,3-dianhydro-4-O-(2-methoxyethyl)-β-D-mannopyranose]",soluble
,"COCCOCCOCCOC1C2COC(O2)C2OC12 [Monomer T, 1,6:2,3-dianhydro-4-O-(2-(2-(2-metoxyethoxy)ethoxy)ethyl)-β-D-mannopyranose]",soluble
